# Values of other authors, collected in patent publication US12390418B2, “Biphasic compositions comprising one or both of carbonate and phosphate” (NATURAL EXTRACTION SYSTEMS, LLC, priority 2021, dated 2025).
# Conditions: in water at 20 degrees Celsius
row,Molecule,association constant for protonation (Kb)
1,O=C(O)O [carbonate],approximately 210 micromolar
2,O=P(O)(O)O [hydrogen phosphate],approximately 160 nanomolar
3,O=C(O)O [bicarbonate],approximately 22 nanomolar
4,phosphate,approximately 23 millimolar
